`*CC(*)(C)C(=O)OC1(C)CCCN(c2ccc(/N=N/c3ccc(/C=C(\C#N)S(C)(=O)=O)cc3)cc2)C1` (repeat unit) showed a glass transition temperature of 196.00 °C.

`*CC(*)(C)C(=O)OC12CC3CC(C)(CC(C)(C3)C1)C2` (repeat unit): the glass transition temperature came to 194.00 °C.

`*CC(*)(C)C(=O)OC1CCC(C(C)(C)C)CC1` (repeat unit) yielded a glass transition temperature of 100.00 °C.

`*CC(*)(C)C(=O)OC1CCCCC1C(C)(C)C` (repeat unit): the glass transition temperature is 185.00 °C.

`*CC(*)(C)C(=O)OC1CCOCC1` (repeat unit) came in with a glass transition temperature of 153.50 °C.

Molecule `*CC(*)(C)C(=O)OCC#C` (repeat unit) registered a glass transition temperature of 58.00 °C.

The molecule `*CC(*)(C)C(=O)OCC(=O)N1CCOCC1` (repeat unit) registered a glass transition temperature of 128.00 °C.

On to `*CC(*)(C)C(=O)OCC(CC)CCCC` (repeat unit), for which the glass transition temperature was -10.00 °C.

For `*CC(*)(C)C(=O)OCC(F)(F)C(F)(F)C(F)(F)C(F)(F)C(F)(F)C(F)(F)C(F)(F)C(F)F` (repeat unit), the glass transition temperature is -15.00 °C.

For the molecule `*CC(*)(C)C(=O)OCC1(CC)COC1` (repeat unit), the glass transition temperature was found to be 105.00 °C.

The molecule `*CC(*)(C)C(=O)OCC1CO1` (repeat unit) returned a glass transition temperature of 68.50 °C.

`*CC(*)(C)C(=O)OCC1COC(=O)O1` (repeat unit) showed a glass transition temperature of 124.00 °C.

Consider `*CC(*)(C)C(=O)OCCC(F)(F)C(F)(F)C(F)(F)C(F)(F)F` (repeat unit), for which the glass transition temperature amounted to 23.00 °C.

In turn, `*CC(*)(C)C(=O)OCCC1CC[N+](C)(CCCCCCOc2ccc(/N=N/c3ccc([N+](=O)[O-])cc3)cc2)CC1` (repeat unit) gave a glass transition temperature of 57.80 °C.

As for `*CC(*)(C)C(=O)OCCCCC` (repeat unit), the glass transition temperature is 10.00 °C.

Molecule `*CC(*)(C)C(=O)OCCCCCC(=O)Oc1ccc(OC(=O)c2ccc(OCC)cc2)cc1` (repeat unit) returned a glass transition temperature of 43.00 °C.

`*CC(*)(C)C(=O)OCCCCCC(=O)Oc1ccc(OC(=O)c2ccc(OCCC)cc2)cc1` (repeat unit): the glass transition temperature amounted to 45.00 °C.

In the case of `*CC(*)(C)C(=O)OCCCCCCCCCCCCCCC(=O)NC1OC(CO)C(OC2OC(CO)C(O)C(O)C2O)C(O)C1O` (repeat unit), the glass transition temperature amounted to 133.00 °C.

On to `*CC(*)(C)C(=O)OCCCCCCCCCCCCCCC(=O)NC1OC(COC(C)=O)C(OC2OC(COC(C)=O)C(OC(C)=O)C(OC(C)=O)C2OC(C)=O)C(OC(C)=O)C1OC(C)=O` (repeat unit), for which the glass transition temperature worked out at 95.20 °C.

With `*CC(*)(C)C(=O)OCCCCCCCCCCCCCCCCCC` (repeat unit), the glass transition temperature was -100.00 °C.

In turn, `*CC(*)(C)C(=O)OCCCCCCCCCCCCOc1ccc(C(=O)Oc2ccc(-c3cccc(OC(=O)c4ccc(OC(=O)c5ccc(OCCCCCCCCCCCC)cc5)cc4)c3)cc2)cc1` (repeat unit) displayed a glass transition temperature of 74.50 °C.

Consider `*CC(*)(C)C(=O)OCCCCCCCCCCCOc1ccc(C(=O)Oc2ccc(C#N)cc2)cc1` (repeat unit), for which the glass transition temperature came to 10.00 °C.

In turn, `*CC(*)(C)C(=O)OCCCCCCCCCCCOc1ccc2cc(C(=O)Oc3ccccc3)ccc2c1` (repeat unit) showed a glass transition temperature of 10.00 °C.

In turn, `*CC(*)(C)C(=O)OCCCCCCCCCCOc1ccc(/N=N/c2ccc(Cl)cc2)cc1` (repeat unit) came in with a glass transition temperature of 54.00 °C.

Regarding `*CC(*)(C)C(=O)OCCCCCCCCCCOc1ccc(/N=N/c2ccc(F)cc2)cc1` (repeat unit), the glass transition temperature turned out to be 49.00 °C.

The molecule `*CC(*)(C)C(=O)OCCCCCCCCCCOc1ccc(/N=N/c2ccc(OC)cc2)cc1` (repeat unit) showed a glass transition temperature of 62.00 °C.

On to `*CC(*)(C)C(=O)OCCCCCCCCCCOc1ccc(/N=N/c2ccc([N+](=O)[O-])cc2)cc1` (repeat unit), for which the glass transition temperature was determined as 55.00 °C.

Consider `*CC(*)(C)C(=O)OCCCCCCCCCCOc1ccc(C#Cc2cc(OC)c(/C=C/c3ccncc3)cc2OC)cc1` (repeat unit), for which the glass transition temperature was 87.10 °C.

Consider `*CC(*)(C)C(=O)OCCCCCCCCCCOc1ccc(C(=O)Oc2ccc(C(=O)/C=C/c3c(C)c4ccccc4n3C)cc2)cc1` (repeat unit), for which the glass transition temperature came out at 72.00 °C.

For `*CC(*)(C)C(=O)OCCCCCCCCCCOc1ccc(C(=O)Oc2ccc(C(=O)/C=C/c3c(C)c4ccccc4n3CCCC)cc2)cc1` (repeat unit), the glass transition temperature was 57.00 °C.

Regarding `*CC(*)(C)C(=O)OCCCCCCCCCCOc1ccc(OC(=O)c2ccc(-c3ccc(OC)cc3)cc2)cc1` (repeat unit), the glass transition temperature amounted to 57.00 °C.

`*CC(*)(C)C(=O)OCCCCCCCCCCOc1ccc(OC(=O)c2ccc(OCCCC)cc2)cc1` (repeat unit) came in with a glass transition temperature of 31.00 °C.

In the case of `*CC(*)(C)C(=O)OCCCCCCCCCCn1c2ccccc2c2cc(/C=C(\C#N)C(=O)OC)ccc21` (repeat unit), the glass transition temperature is 58.00 °C.

Regarding `*CC(*)(C)C(=O)OCCCCCCCCOc1ccc(/N=N/c2ccc(C3OCC4(CO3)CC3C=CC4C3)cc2)cc1` (repeat unit), the glass transition temperature came out at 106.20 °C.

In turn, `*CC(*)(C)C(=O)OCCCCCCCCOc1ccc(C(=O)Oc2ccc(C(=O)/C=C/c3c(C)c4ccccc4n3C)cc2)cc1` (repeat unit) gave a glass transition temperature of 75.00 °C.

In the case of `*CC(*)(C)C(=O)OCCCCCCN(C)c1ccc(N(C)C)cc1` (repeat unit), the glass transition temperature is 8.50 °C.

With `*CC(*)(C)C(=O)OCCCCCCN1CCN(c2ccc(/N=N/c3ccc(C#N)cc3)cc2)CC1` (repeat unit), the glass transition temperature was found to be 77.00 °C.

Turning to `*CC(*)(C)C(=O)OCCCCCCN1CCN(c2ccc(/N=N/c3ccc([N+](=O)[O-])cc3)cc2)CC1` (repeat unit), the glass transition temperature was found to be 60.00 °C.

In turn, `*CC(*)(C)C(=O)OCCCCCCOc1ccc(/C=N/c2ccc(C#N)cc2)cc1` (repeat unit) displayed a glass transition temperature of 35.00 °C.

`*CC(*)(C)C(=O)OCCCCCCOc1ccc(/N=N/c2ccc(C#N)cc2)cc1` (repeat unit): the glass transition temperature was 61.00 °C.

Regarding `*CC(*)(C)C(=O)OCCCCCCOc1ccc(/N=N/c2ccc(C3OCC4(CO3)CC3C=CC4C3)cc2)cc1` (repeat unit), the glass transition temperature was found to be 118.50 °C.

With `*CC(*)(C)C(=O)OCCCCCCOc1ccc(/N=N/c2ccc(OCCCC)cc2)cc1` (repeat unit), the glass transition temperature amounted to 79.00 °C.

Molecule `*CC(*)(C)C(=O)OCCCCCCOc1ccc(/N=N/c2ccc(OCCCCCCCCCC)cc2)cc1` (repeat unit) registered a glass transition temperature of 110.00 °C.

Take `*CC(*)(C)C(=O)OCCCCCCOc1ccc(/N=N/c2ccc([N+](=O)[O-])cc2)cc1` (repeat unit): the glass transition temperature was found to be 108.00 °C.

Take `*CC(*)(C)C(=O)OCCCCCCOc1ccc(/N=N/c2ccncc2)cc1` (repeat unit): the glass transition temperature was 42.00 °C.

In turn, `*CC(*)(C)C(=O)OCCCCCCOc1ccc(C(=O)Oc2ccc(/N=N/c3ccc(C#N)cc3)c3ccccc23)cc1` (repeat unit) registered a glass transition temperature of 41.00 °C.

For the molecule `*CC(*)(C)C(=O)OCCCCCCOc1ccc(C(=O)Oc2ccc(OC)cc2)cc1` (repeat unit), the glass transition temperature was 46.00 °C.

`*CC(*)(C)C(=O)OCCCCCCOc1ccc(OC(=O)c2ccc(-c3ccc(OC)cc3)cc2)cc1` (repeat unit) showed a glass transition temperature of 57.00 °C.

Consider `*CC(*)(C)C(=O)OCCCCCCOc1ccc2cc(C(=O)Oc3ccccc3)ccc2c1` (repeat unit), for which the glass transition temperature was found to be 39.00 °C.

For `*CC(*)(C)C(=O)OCCCCCCn1c2ccccc2c2ccccc21` (repeat unit), the glass transition temperature came to 73.00 °C.

In turn, `*CC(*)(C)C(=O)OCCCCCOc1ccc(-c2ccc(C#N)cc2)cc1` (repeat unit) came in with a glass transition temperature of 60.00 °C.

`*CC(*)(C)C(=O)OCCCCCc1ccc(/N=N/c2ccc(OC(F)(F)F)cc2)cc1` (repeat unit) displayed a glass transition temperature of 202.50 °C.

Take `*CC(*)(C)C(=O)OCCCCOc1ccc(C(=O)Oc2ccc(OC)cc2)cc1` (repeat unit): the glass transition temperature was 45.00 °C.

In turn, `*CC(*)(C)C(=O)OCCCCOc1ccc(OC(=O)c2ccc(OC)c(Br)c2)cc1` (repeat unit) registered a glass transition temperature of 69.00 °C.

In the case of `*CC(*)(C)C(=O)OCCCCOc1ccc(OC(=O)c2ccc(OCCCCCCCC)cc2)cc1` (repeat unit), the glass transition temperature amounted to 10.00 °C.

Molecule `*CC(*)(C)C(=O)OCCCCc1ccccc1` (repeat unit) registered a glass transition temperature of 9.00 °C.

In the case of `*CC(*)(C)C(=O)OCCCCn1c2ccccc2c2cc(/N=N/c3ccc([N+](=O)[O-])cc3[N+](=O)[O-])ccc21` (repeat unit), the glass transition temperature is 132.00 °C.

Molecule `*CC(*)(C)C(=O)OCCCOc1ccc(C(=O)Oc2ccc3ccc(=O)oc3c2)cc1` (repeat unit) registered a glass transition temperature of 68.00 °C.

With `*CC(*)(C)C(=O)OCCC[Si]12O[Si]3(CC(C)C)O[Si]4(CC(C)C)O[Si](CC(C)C)(O1)O[Si]1(CC(C)C)O[Si](CC(C)C)(O2)O[Si](CC(C)C)(O3)O[Si](CC(C)C)(O4)O1` (repeat unit), the glass transition temperature was found to be 85.00 °C.

For `*CC(*)(C)C(=O)OCCCc1ccc(/N=N/c2ccc(OC(F)(F)F)cc2)cc1` (repeat unit), the glass transition temperature was determined as 211.50 °C.

As for `*N=P(Cl)(N=P(Cl)(/N=S(/*)Oc1ccccc1-c1ccccc1)Oc1ccccc1-c1ccccc1)Oc1ccccc1-c1ccccc1` (repeat unit), the glass transition temperature is 79.00 °C.

Molecule `*N=P(N=P(/N=S(/*)Oc1ccc(C(C)(C)C)cc1)(Oc1ccc(-c2ccccc2)cc1)Oc1ccc(-c2ccccc2)cc1)(Oc1ccc(-c2ccccc2)cc1)Oc1ccc(-c2ccccc2)cc1` (repeat unit) had a glass transition temperature of 54.00 °C.

With `*N=P(N=P(N=S(*)(=O)NCC=C)(NCC=C)NCC=C)(NCC=C)NCC=C` (repeat unit), the glass transition temperature is -18.00 °C.

For `*N=P(N=P(N=S(*)(=O)Nc1ccccc1)(Nc1ccccc1)Nc1ccccc1)(Nc1ccccc1)Nc1ccccc1` (repeat unit), the glass transition temperature was determined as 82.00 °C.

For the origin of these results see the PolyMetriX glass transition set.
